# Data: patent US6451544B2, “Identification of agents that protect against inflammatory injury to neurons” (Baylor College of Medicine, priority 1996, dated 2002)
# “Also recorded” adds a separate entry of the source. Peptide text beside a SMILES is read from it.
# Tests used:
# [1] = tested on: rat microglia stimulated with Aβ1-42; human microglia stimulated with fraction S5; assay: Drug blockade of Aβ induced neuron killing by rat and human microglia; type: cell-based; settings: vitamin E 100 μM, catalase 25 units/ml, glutathione 100 μM, L-NIO 10 μM, DPI 300 nM, glutamate antagonists 10 μM
# Description: A number of cytotoxic factors have been reported to participate in Aβ neurotoxicity, including radicals (Behl et al., 1994), nitric oxide (Meda et al., 1995), cytokines (Mrak et al., 1995), and NMDA-like molecules (Giulian et al., 1995a).
# [2] = type: physicochemical
# Procedure: Properties and sources of amyloid peptides. […] Solubility of peptides is described for chemically-defined culture media at 37° C.
# [3] = tested on: HEK cells expressing NMDA1b/2A; assay: NTox exposure of HEK cells expressing NMDA receptors (trypan blue); type: cell-based, human
# Description: FIG. 6A) Photomicrograph of trypan blue(+) control HEK cells exposed to NTox.
# Presence of neurotoxic activity will be determined by reduction in cell number, changes in biochemical markers such as loss of cell metabolic function, release of intracellular material, penetration of impermeant dyes, such as and not limited to fluorescent nuclear dyes and trypan blue (FIG. 6), reduction of the number of neurons, loss of neurofilament or synaptophysin, release of lactate dehydrogenase, or other evidence of cell injury.
# [4] = tested on: microglia stimulated by Aβ1-42; assay: In vitro screening of drugs which inactivate microglia stimulated by Aβ1-42; type: cell-based; settings: mixed with Aβ peptides; for prevention of neurotoxic microglia, signal transduction inhibitors: test concentrations 0.01 to 100 μM
# Description: Such in vitro assays permit rapid screening of drugs with therapeutic potential for Alzheimer Disease.
# Such in vitro assays permit rapid screening of drugs which serve as lead compounds for development of therapeutics for Alzheimer Disease.
# Once activated by plaque components, microglia release neurotoxic agents. Although many drugs are known to suppress the immune system outside the brain, it is not known which drugs actually have the ability to inactivative plaque-stimulated microglia within the brain and thus prevent the immune-mediated damage caused by Alzheimer Disease. […] Activated microglia also require intracellular events signaled by signal transducers, to convert the plaque or Aβ complex formation with microglia into cellular events which lead to the production and release of neurotoxins including NTox. […] Thus, the use of the microglia-neuron assay systems allowed identification of specific drug families with value in the treatment of Alzheimer Disease.
# [5] = tested on: neurons; assay: Neuroprotective effects of NTox-like compounds; type: cell-based
# [6] = tested on: rat hippocampal cultures supplemented with microglia; assay: Neurotoxicity assay: hippocampal neuron cultures supplemented with microglia (induction of neurotoxic microglia); type: cell-based
# Description: Rat microglia were isolated from newborn animals using the method of Giulian and Baker, 1986, with recovery of >98% homogenous population monitored by binding the fluorescent probe acetylated low density lipoprotein labeled with 1,1′-dioctadecyl-3,3,3′,3′-tetramethyl-indo-carbocyanine [Dil-ac-LDL]). Amyloid proteins were isolated from AD neocortical gray matter laden with neuritic and core plaques with final separations involving a discontinuous sucrose gradient. […] Cultured neurons prepared from rat hippocampus consisted of process-bearing neurons (10-20% of total cell population) atop a bed of astroglia (>70%) mixed with microglia (5-10%). In order to eliminate microglia, cultures were exposed saporin (a ribosome-inactivating protein) coupled to acetylated LDL (ac-LDL) for 10 pg/ml for 18 hours. […] After 14 days in vitro, cultures (with a final concentration of 0.6% serum) were exposed to test substances in the presence or absence of exogenous microglia for 72 hours. […] Data were expressed as % mean survival expressed in terms of parallel untreated control cultures after scoring at least 8 randomly selected fields for each of 3 coverslips from at least 3 independent experiments. […]
# [7] = tested on: rat microglia; assay: Binding of Aβ peptide-coupled fluorescent microspheres to microglia; settings: 1 micron fluorescent microspheres
# Procedure: Fluoresbrite carboxylate microspheres (YG 1.0 μm, Polysciences; 0.5 ml of a 2.5% suspension) were washed twice in 0.1 M carbonate buffer (pH 9.6) and three times in 0.02 M sodium phosphate (pH 4.5). Carbodiimide was then added dropwise to a final concentration of 1% and the suspension mixed for 4 hours at room temperature. Following 3 more washes in 0.02M sodium phosphate, the pellet was resuspended in 1.2 ml of 0.2 M borate buffer (pH 8.5) and 300 μg Aβ (or control peptide) and 5% DMSO added. After overnight mixing at room temperature, the microspheres were blocked by 1 M glycine (pH 8.0) for 30 minutes and washed in 10 mg/ml BSA in phosphate buffer.
# To delineate further which portions of the Aβ peptide served as a microglial binding site, a variety of synthetic peptides coupled to 1 micron diameter microspheres was next compared.
# [8] = tested on: brain neocortex; assay: Microsphere implants in brain neocortex; type: in vivo
# Description: FIGS. 7A, B, and C show SpheresAβ1-42 in vivo. Weeks after implantation of large microspheres (250 micron diameter) remain embedded within brain neocortex (FIG. 7A). […] Microglia were visualized by uptake of fluorescent labeled acetylated LDL, Dil-ac-LDL Bar=40 μm, FIG. 7A; 25 μm FIGS. 7B and C.
# Data support histological changes.
# In vivo binding, activation, and neurotoxicity assays involve infusion of a tagged plaque component coupled to a solid support such as microspheres (FIG. 7) into a mammalian brain. Following infusion of materials, a test compound may be co-injected into the brain intraventricularly or intracranially by cannula with delivery systems including syringes or implanted osmotic pumps. A test compound may also be delivered systemically by intraperitoneal, intravenous, intra-arterial, nasal, or oral routes. Evidence of immune activation of the brain by a plaque component may be monitored using histological, biochemical, or molecular methods such as quantitative reverse transcriptase polymerase chain reaction method to identify cell markers of immune responses including surface proteins, enzymes, or cytokines (FIG. 8). The production of neurotoxic activity may be assayed by histochemical (FIG. 7) or biochemical to identify cell markers of immune responses including injury or destruction of neurons. […]
# [9] = tested on: microglia; assay: SpheresAβ1-42 binding to microglia; design: species or system rat; settings: for SpheresAβ1-42 binding to microglia in presence of GAGs or scavenger receptor ligands: heparin sulfate 50 μg/ml, dextran sulfate 500 μg/ml, ac-LDL 200 μg/ml
# Procedure: (§1) Isolated microglia (1000 per mm^2 ) were placed atop 16 mm glass coverslips in 24-well culture plates. Each well then received 250,000 SpheresAβ1-42 or Spheresmal-BSA in the presence or absence of Aβ peptides, GAGs, or scavenger receptor ligands. Binding assays were carried out at 37° C. for 4 hours after which coverslips were dipped 10 times in phosphate buffer and fixed with 4% buffered paraformaldehyde. Microsphere adherence to cells was scored at 200 magnification with phase/fluorescence microscopy. Data, expressed as % inhibition of sphere binding, was calculated from total number of spheres per field noted for control cultures receiving spheres only. Values are based upon at least 3 coverslips from 2 independent experiments. Fluoresbrite carboxylate YG microspheres (1.0 micron diameters; 0.5 ml of a 2.5% suspension) were activated with 1% carbodiimide for 4 hr at room temperature. Washed spheres were resuspended in 0.2 M borate buffer (pH 8.5) in the presence of 300 μg Aβ or 400 μg BSA in 6% DMSO. After overnight mixing at room temperature, the spheres were washed extensively and blocked by 1 M glycine (pH 8.0) for 30 minutes. Maleylation of coupled BSA was carried out at room temperature by adding 1 M maleic anhdyride in acetonitrile at pH 9.0.
# [10] = tested on: scavenger receptors; assay: Spheresmal-BSA binding to microglia; design: species or system rat
# Procedure: as §1
# [11] = trypsin 5000 units/ml 60 min, heparinase 2 x 0.01 units/ml, chondroitinase ABC 2 x 0.02 units/ml
compound,measurement,setting,value
NC(CCCP(=O)(O)O)C(=O)O (stereo not drawn) [AP5],protection against microglia-mediated neuron killing,[1],prevented neuronal loss; also recorded: prevented neuron death
NC(CCCCCP(=O)(O)O)C(=O)O (stereo not drawn) [AP7],protection against microglia-mediated neuron killing,[1],prevented neuronal loss; also recorded: blocked neuron death
CC(C)C[C@H](NC(=O)[C@H](CCCCN)NC(=O)[C@H](CCC(N)=O)NC(=O)[C@H](Cc1cnc[nH]1)NC(=O)[C@H](Cc1cnc[nH]1)NC(=O)[C@@H](N)C(C)C)C(=O)N[C@H](C(=O)N[C@@H](Cc1ccccc1)C(=O)N[C@@H](Cc1ccccc1)C(=O)N[C@@H](C)C(=O)N[C@@H](CCC(=O)O)C(=O)N[C@@H](CC(=O)O)C(=O)N[C@H](C(=O)NCC(=O)N[C@@H](CO)C(=O)N[C@@H](CC(N)=O)C(=O)N[C@@H](CCCCN)C(=O)O)C(C)C)C(C)C [Aβ12-28],Solubility,[2],soluble
CC[C@H](C)[C@H](NC(=O)[C@H](C)NC(=O)CNC(=O)[C@H](CCCCN)NC(=O)[C@H](CC(N)=O)NC(=O)[C@H](CO)NC(=O)CNC(=O)[C@@H](NC(=O)[C@H](CC(=O)O)NC(=O)[C@H](CCC(=O)O)NC(=O)[C@H](C)NC(=O)[C@H](Cc1ccccc1)NC(=O)[C@H](Cc1ccccc1)NC(=O)[C@@H](NC(=O)[C@@H](N)CC(C)C)C(C)C)C(C)C)C(=O)N[C@H](C(=O)NCC(=O)N[C@@H](CC(C)C)C(=O)N[C@@H](CCSC)C(=O)N[C@H](C(=O)NCC(=O)NCC(=O)N[C@H](C(=O)N[C@H](C(=O)N[C@H](C(=O)N[C@@H](C)C(=O)O)[C@@H](C)CC)C(C)C)C(C)C)C(C)C)[C@@H](C)CC [Aβ17-42] (H-LVFFAEDVGSNKGAIIGLMVGGVVIA-OH; N-terminus and C-terminus assumed),Solubility,[2],very insoluble
CC[C@H](C)[C@H](NC(=O)[C@H](C)NC(=O)CNC(=O)[C@H](CCCCN)NC(=O)[C@H](CC(N)=O)NC(=O)[C@H](CO)NC(=O)CN)C(=O)N[C@H](C(=O)NCC(=O)N[C@@H](CC(C)C)C(=O)N[C@@H](CCSC)C(=O)O)[C@@H](C)CC [Aβ25-35] (H-GSNKGAIIGLM-OH; N-terminus and C-terminus assumed),Solubility,[2],soluble
"c1ccc([I+]c2ccccc2)cc1 [DPI, diphenyl iodonium]",protection against microglia-mediated neuron killing,[1],no reduction of microglia-mediated neuron killing; also recorded: No protective effects were observed
N[C@H](CCC(=O)NCS(=O)(=O)O)C(=O)O [GAMS],protection against microglia-mediated neuron killing,[1],did not
"CC(=N)NCCC[C@H](N)C(=O)O.Cl [L-NIO, L-N-5-(1-imin-oethyl)ornithine hydrochloride]",protection against microglia-mediated neuron killing,[1]; hydrochloride,no reduction of microglia-mediated neuron killing; also recorded: No protective effects were observed
C[C@]12N[C@H](Cc3ccccc31)c1ccccc12 [MK-801],protection against microglia-mediated neuron killing,[1],prevented neuronal loss
same,protection against microglia-mediated neuron killing,[1]; listed as MK801,blocked neuron death
same,blockade of NTox killing effect,[3],could be blocked
CCN(CC)CCCC(C)Nc1ccnc2cc(Cl)ccc12 (stereo not drawn) [chloroquine],"prevention of neurotoxic microglia, immuno-suppressive drugs",[4]; test concentrations 0.1 to 10 μM,had a protective effect; also recorded: block neuron killing
COc1c(C=O)c(O)cc2c1C(=O)c1ccccc1C2=O [damacanthal],"prevention of neurotoxic microglia, signal transduction inhibitors",[4],had a protective effect
O=c1c(-c2ccc(O)cc2)coc2cc(O)cc(O)c12 [genistein],"prevention of neurotoxic microglia, signal transduction inhibitors",[4],had a protective effect
N[C@@H](CCC(=O)N[C@@H](CS)C(=O)NCC(=O)O)C(=O)O [glutathione],protection against microglia-mediated neuron killing,[1],no reduction of microglia-mediated neuron killing; also recorded: did not block microglial killing of neurons
CC(C(O)c1ccc(O)cc1)N1CCC(Cc2ccccc2)CC1 (stereo not drawn) [ifenprodil],protection against microglia-mediated neuron killing,[1],prevented neuronal loss; also recorded: blocked neuron death
NCCc1ccc(O)cc1 [tyramine],protection of neurons against quinolinic acid,[5]; 100 μM quinolinic acid (QUIN),protective effect did not occur; also recorded: did not block
same,protection of neurons against NTox / Aβ1-42-stimulated microglia,[5]; microglia stimulated with Aβ1-42 or isolated NTox applied to neurons,prevented neuronal injury; also recorded: did not damage neurons in the presence of tyramine
SpheresAβ1-42: Aβ1-42 coupled to microspheres,"capacity to elicit neurotoxic microglia, coupled to microspheres or in solution","[6]; 250,000 microspheres per culture, 100,000 microglia per culture, 72 hour incubation",induced neuron killing
same,uptake of peptide-coupled microspheres by microglia in culture,[7],rapidly engulfed by cultured microglia
same,reactive microglia around implanted microspheres,"[8]; 250 micron spheres, weeks after implantation",chronically stimulate the presence of reactive cells
same,increase in scavenger receptor II mRNA in tissue surrounding implant,"[8]; two weeks after implantation, vs undamaged control tissue or SphereBSA",5 fold
catalase,protection against microglia-mediated neuron killing,[1],no reduction of microglia-mediated neuron killing; also recorded: did not block microglial killing of neurons
chondroitin sulfate,SpheresAβ1-42 binding to microglia in presence of GAGs or scavenger receptor ligands,[9],not similar compounds; also recorded: only heparin sulfate blocked
dextran sulfate,SpheresAβ1-42 binding to microglia in presence of GAGs or scavenger receptor ligands,[9],not similar compounds
same,SpheresAβ1-42 binding to microglia in presence of GAGs or scavenger receptor ligands,[9]; listed as dextm sulfate,only heparin sulfate blocked
same,Spheresmal-BSA binding to microglia in presence of ligands,"[10]; dextran sulfate 500 μg/ml, ac-LDL 200 μg/ml, Aβ1-16 10 μmole/l",blocked Spheresmal-BSA binding
heparin sulfate,SpheresAβ1-42 binding to microglia in presence of GAGs or scavenger receptor ligands,[9],reduction of binding; also recorded: blocked SpheresAβ1-42 binding
same,SpheresAβ1-42 binding to microglia in presence of GAGs or scavenger receptor ligands,[9]; listed as heparan sulfate,block Aβ binding to microglia
"rodent Aβ1-42: rodent form of Aβ1-42 (DAEFGHDSGFEVRHQKLVFFAEDVGSNKGAIIGLMVGGVVIA; Amyloid-beta protein 42; UniProt P12023 672-713, looked up, fragment)",induction of neurotoxic microglia / neuron killing in presence of microglia,"[6]; peptide in solution, typically 1 μmole/l, 72 hours, microglia 500 per mm^2",does not induce toxicity
trypsin,SpheresAβ1-42 binding after enzymatic pre-treatment of microglia,[9]; [11],reduced
same,Spheresmal-BSA binding after enzymatic pre-treatment of microglia,[10]; [11],reduced
vitamin E,protection against microglia-mediated neuron killing,[1],no reduction of microglia-mediated neuron killing; also recorded: did not block microglial killing of neurons
